For orientation: IC50 means the concentration that inhibits the measured activity by half. The Papp is a coefficient for how fast a substance crosses the barrier. A higher Papp goes with fast passage. By melting point is commonly meant the temperature, or range, at which the solid turns liquid.

One data set addresses T1, recombinant human IP6K2 (Homo sapiens, UniProt Q9UHH9).
T1 construct: made in house; host or cells: Sf9 insect cells (baculovirus, pFASTBAC1)
T1 sequence (Q9UHH9 1-426): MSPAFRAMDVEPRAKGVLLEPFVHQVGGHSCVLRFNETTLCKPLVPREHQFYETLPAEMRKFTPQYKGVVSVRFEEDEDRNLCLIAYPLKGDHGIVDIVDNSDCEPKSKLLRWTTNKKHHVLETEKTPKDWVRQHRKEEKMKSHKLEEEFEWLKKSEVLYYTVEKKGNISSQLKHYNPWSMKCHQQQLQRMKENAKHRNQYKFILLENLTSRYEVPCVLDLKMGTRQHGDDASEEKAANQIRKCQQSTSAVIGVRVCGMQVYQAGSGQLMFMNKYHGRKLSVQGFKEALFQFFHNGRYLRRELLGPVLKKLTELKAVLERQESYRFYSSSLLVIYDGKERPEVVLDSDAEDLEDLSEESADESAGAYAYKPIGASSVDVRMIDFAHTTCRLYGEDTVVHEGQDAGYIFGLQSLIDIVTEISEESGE
Description: ADP-Glo kinase assay, IP6K2. The class given is biochemical. To be noted: IC50 compared with quercetin. On the procedure:
Inhibition activity of the synthesised compounds against IP6K2 was assessed using ADP-Glo™ Kinase Assay (Promega). Kinase reaction mixtures were first shaking-incubated with individual drugs (diluted in DMSO) for pre-incubation at RT for 15 min, and then ATP was added (final 10 µM) to initiate the reaction. 20 ng of recombinant human IP6K2 protein was used per 15 µL of IP6K2 reaction mixture (50 mM Tris-HCl, pH 6.8, 10 mM MgCl2, 2.5 mM DTT, 0.02% Triton X-100, 10 µM IP6). […] Each detection set was prepared on 96-well (25 µL kinase reaction) as duplicates. Resulting enzyme activity was calculated as following; Activity (%) = ([ADPexperimental]/[ADPDMSO])×100. For IC50 estimation of compounds, kinase assay was prepared on 384-well plates (20 ng of recombinant human IP6K2 protein was used per 5 µL kinase reaction mixture) as duplicates. The final concentrations for IP6K2, IP6, and ATP were 80 nM, 10 μM, and 10 μM, respectively. […] IP6K1 and IP6K3 assays were performed by Liao et al.’s conditions.[25] The final concentrations for IP6K1, IP6, and ATP were 60 nM, 100 μM, and 1 mM, respectively. […] All statistical analyses including IC50 estimation was performed using Prism 7 or Prism 9 (Graphpad Software).
Full-length human IP6K1, IP6K2, or IP6K3 cDNA was subcloned into pFASTBAC1 plasmid (Gibco) with an N-terminal FLAG epitope sequence, and baculovirus was generated according to the manufacturer’s instructions. Sf9 insect cells were infected with baculovirus and incubated for 72 h. The cells were resuspended in lysis buffer [20 mM Tris–HCl (pH 7.9), 500 mM NaCl, 4 mM MgCl2, 0.4 mM EDTA, 2 mM DTT, 20% glycerol, 1 mM PMSF, and protease inhibitor cocktail (Roche)] and then disrupted with a Dounce homogeniser (pestle A, 3 series of 10 strokes with 10 min interval).
A general note: ADP-Glo turns the ADP formed in a reaction into a luminescent signal.
Consider `Cn1cc(-c2oc3cc(O)c(O)cc3c(=O)c2O)cn1` [Compound 23b, 3,6,7-Trihydroxy-2–(1-methyl-1H-pyrazol-4-yl)-4H-chromen-4-one], for which the “fold more potent IP6K2 inhibition than quercetin” value was 2 fold.

The data set is the same for the next values; noted with them: IC50 experiment up to 100 µM.
For `Cc1ccc(-c2oc3cc(O)c(O)cc3c(=O)c2O)cc1C` [Compound 20e, 2–(3,4-Dimethylphenyl)-3,6,7-trihydroxy-4H-chromen-4-one], the “inhibitory activity against IP6K2 (in words)” value is on record as “completely lost their inhibitory activity against IP6K2”.

In the case of `O=c1c(O)c(-c2ccc(F)c(F)c2)oc2cc(O)c(O)cc12` [Compound 20h, 2–(3,4-Difluorophenyl)-3,6,7-trihydroxy-4H-chromen-4-one], the “inhibitory activity against IP6K2 (in words)” value is recorded as “completely lost their inhibitory activity against IP6K2”.

The same data set, now with this note: Table 1; IP6K2 80 nM, IP6 10 μM, ATP 10 μM; read-out: IP6K2 IC50.
Take `O=C(O)c1ccc(-c2cc(=O)c3cc(O)c(O)cc3o2)cc1` [Compound 16a, 4–(6,7-Dihydroxy-4-oxo-4H-chromen-2-yl)benzoic acid]: the IC50 came out at 9.07 µM.

For `O=C(O)c1cccc(-c2cc(=O)c3cc(O)c(O)cc3o2)c1` [Compound 16b, 3–(6,7-Dihydroxy-4-oxo-4H-chromen-2-yl)benzoic acid], the IC50 worked out at 1.67 µM.

Turning to `O=C(O)c1ccc(-c2cc(=O)c3c(O)cc(O)cc3o2)cc1` [Compound 16c, 4–(5,7-Dihydroxy-4-oxo-4H-chromen-2-yl)benzoic acid], the IC50 amounted to 41.9 µM.

As to `O=C(O)c1cccc(-c2cc(=O)c3c(O)cc(O)cc3o2)c1` [Compound 16d, 3–(5,7-Dihydroxy-4-oxo-4H-chromen-2-yl)benzoic acid], the half-maximal inhibitory concentration (IC50) worked out at 2.89 µM.

The data set is the same for the next values; noted with them: Table 2; duplicates, 0.017 to 100 µM, mean ± SD; IP6K2 80 nM, IP6 10 μM, ATP 10 μM; read-out: IP6K2 IC50.
Turning to `O=c1c(O)c(-c2ccc(O)c(O)c2)oc2cc(O)c(O)cc12` [Compound 20a, 2–(3,4-Dihydroxyphenyl)-3,6,7-trihydroxy-4H-chromen-4-one], the half-maximal inhibitory concentration (IC50) amounted to 1.77 ± 0.15 µM.

Turning to `O=c1c(O)c(-c2ccccc2)oc2cc(O)c(O)cc12` [Compound 20b, 3,6,7-Trihydroxy-2-phenyl-4H-chromen-4-one], the IC50 worked out at 14.5 ± 0.9 µM.

As to `Cc1ccc(-c2oc3cc(O)c(O)cc3c(=O)c2O)cc1` [Compound 20c, 3,6,7-Trihydroxy-2-(p-tolyl)-4H-chromen-4-one], the IC50 is greater than 100 µM.

For the compound `Cc1cccc(-c2oc3cc(O)c(O)cc3c(=O)c2O)c1` [Compound 20d, 3,6,7-Trihydroxy-2-(m-tolyl)-4H-chromen-4-one], the 50% inhibitory concentration (IC50) came out at 38.8 ± 3.8 µM.

As to `Cc1ccc(-c2oc3cc(O)c(O)cc3c(=O)c2O)cc1C` [Compound 20e, 2–(3,4-Dimethylphenyl)-3,6,7-trihydroxy-4H-chromen-4-one], the half-inhibitory concentration (IC50) was greater than 100 µM.

For the compound `O=c1c(O)c(-c2ccc(F)cc2)oc2cc(O)c(O)cc12` [Compound 20f, 2–(4-Fluorophenyl)-3,6,7-trihydroxy-4H-chromen-4-one], the half-maximal inhibitory concentration (IC50) came out at 61.9 ± 3.8 µM.

Take `O=c1c(O)c(-c2cccc(F)c2)oc2cc(O)c(O)cc12` [Compound 20g, 2–(3-Fluorophenyl)-3,6,7-trihydroxy-4H-chromen-4-one]: the IC50 came to 38.7 ± 2.9 µM.

With `O=c1c(O)c(-c2ccc(F)c(F)c2)oc2cc(O)c(O)cc12` [Compound 20h, 2–(3,4-Difluorophenyl)-3,6,7-trihydroxy-4H-chromen-4-one], the IC50 was greater than 100 µM.

Consider `O=c1c(O)c(-c2ccc(C(F)(F)F)cc2)oc2cc(O)c(O)cc12` [Compound 20i, 3,6,7-Trihydroxy-2–(4-(trifluoromethyl)phenyl)-4H-chromen-4-one], for which the IC50 is greater than 100 µM.

As for `O=c1c(O)c(-c2cccc(C(F)(F)F)c2)oc2cc(O)c(O)cc12` [Compound 20j, 3,6,7-Trihydroxy-2–(3-(trifluoromethyl)phenyl)-4H-chromen-4-one], the IC50 was greater than 100 µM.

`O=c1c(O)c(-c2ccc(Cl)cc2)oc2cc(O)c(O)cc12` [Compound 20k, 2–(4-Chlorophenyl)-3,6,7-trihydroxy-4H-chromen-4-one]: the IC50 turned out to be 81.5 ± 3.3 µM.

Regarding `O=c1c(O)c(-c2cccc(Cl)c2)oc2cc(O)c(O)cc12` [Compound 20l, 2–(3-Chlorophenyl)-3,6,7-trihydroxy-4H-chromen-4-one], the 50% inhibitory concentration (IC50) worked out at 73.2 ± 3.2 µM.

On to `O=c1c(O)c(-c2ccc(-c3ccccc3)cc2)oc2cc(O)c(O)cc12` [Compound 20m, 2-([1,1'-Biphenyl]-4-yl)-3,6,7-trihydroxy-4H-chromen-4-one], for which the half-inhibitory concentration (IC50) was greater than 100 µM.

Regarding `O=c1c(O)c(-c2ccc(Oc3ccccc3)cc2)oc2cc(O)c(O)cc12` [Compound 20n, 3,6,7-Trihydroxy-2–(4-phenoxyphenyl)-4H-chromen-4-one], the half-maximal inhibitory concentration (IC50) was greater than 100 µM.

For `O=c1c(O)c(-c2cccc(Oc3ccccc3)c2)oc2cc(O)c(O)cc12` [Compound 20o, 3,6,7-Trihydroxy-2–(3-phenoxyphenyl)-4H-chromen-4-one], the half-maximal inhibitory concentration (IC50) turned out to be 73.3 ± 12.7 µM.

Regarding `O=c1c(O)c(-c2ccc(O)cc2)oc2cc(O)c(O)cc12` [Compound 20p, 3,6,7-Trihydroxy-2–(4-hydroxyphenyl)-4H-chromen-4-one], the half-maximal inhibitory concentration (IC50) was 22.6 ± 0.3 µM.

On to `O=c1c(O)c(-c2cccc(O)c2)oc2cc(O)c(O)cc12` [Compound 20q, 3,6,7-Trihydroxy-2–(3-hydroxyphenyl)-4H-chromen-4-one], for which the concentration for half-maximal inhibition (IC50) turned out to be 2.96 ± 0.19 µM.

Turning to `O=C(O)c1ccc(-c2oc3cc(O)c(O)cc3c(=O)c2O)cc1` [Compound 20r, 4–(3,6,7-Trihydroxy-4-oxo-4H-chromen-2-yl)benzoic acid], the IC50 turned out to be 3.93 ± 0.03 µM.

With `O=c1c(O)c(-c2ccc3ccccc3c2)oc2cc(O)c(O)cc12` [Compound 23a, 3,6,7-Trihydroxy-2-(naphthalen-2-yl)-4H-chromen-4-one], the IC50 was 97.8 ± 1.7 µM.

On to `Cn1cc(-c2oc3cc(O)c(O)cc3c(=O)c2O)cn1` [Compound 23b, 3,6,7-Trihydroxy-2–(1-methyl-1H-pyrazol-4-yl)-4H-chromen-4-one], for which the IC50 is 1.79 ± 0.4 µM.

As for `O=c1c(O)c(-c2cccs2)oc2cc(O)c(O)cc12` [Compound 23c, 3,6,7-Trihydroxy-2-(thiophen-2-yl)-4H-chromen-4-one], the IC50 is 73.3 ± 12.8 µM.

Still in this data set, the particulars now being: at concentrations of 10 and 50 µM, result in words.
For the compound `O=c1cc(-c2ccccc2)oc2cc(O)c(O)cc12` [Compound 2a], the “IP6K2-inhibitory activity in screening” value is “inhibit IP6K2 more strongly than the corresponding compounds”.

Consider `O=c1cc(-c2ccc(O)cc2)oc2cc(O)c(O)cc12` [Compound 2c], for which the “IP6K2-inhibitory activity in screening” value is “inhibit IP6K2 more strongly than the corresponding compounds”.

Consider `O=c1cc(-c2cccnc2)oc2cc(O)c(O)cc12` [Compound 2e], for which the “IP6K2-inhibitory activity in screening” value is “inhibit IP6K2 more strongly than the corresponding compounds”.

System in the next data set: not listed separately
Description: in vitro. To be noted: PAMPA. From the text: Supporting Information Table 1.
artificial membrane permeability assay (PAMPA) as described previously (reference). The apparent permeability
(ranitidine, nadolol, hydrochlorothiazide).
Data are mean ± S.D. (n=3).
Reference: Oh, M.H., Lee, H.J., Jo, S.H., et al. Development of Cassette PAMPA for Permeability Screening. Biol Pharm
`O=C(N[C@H](CO)[C@H](O)c1ccc([N+](=O)[O-])cc1)C(Cl)Cl` [Chloramphenicol, chloramphenicol]: the Papp was determined as 4.67 ± 0.063 ×10⁻⁶ cm/s and the Permeability class result is reported as “High”.

System in a further data set: not given
Test: not given
Conditions: not given
The compound `O=c1cc(-c2ccc(O)cc2)oc2cc(F)ccc12` had a melting point of 310 to 312 °C.

The compound `O=c1cc(-c2ccc(O)cc2)oc2ccc(F)cc12` showed a melting point of 292 to 294 °C.

In the case of `O=c1cc(-c2ccc(O)cc2)oc2cccc(F)c12`, the melting point lay within 272 to 274 °C.

Compound `O=c1cc(-c2ccc(O)cc2)oc2cc(F)c(F)cc12` came in with a melting point of 302 to 304 °C.

Take `O=C(O)c1cccc(-c2cc(=O)c3cc(F)c(F)cc3o2)c1`: the melting point was in the range of 272 to 274 °C.

In the case of `O=c1cc(-c2ccc(O)cc2)oc2cc(F)cc(F)c12`, the melting point is 228 to 230 °C.

`O=c1cc(-c2ccccc2)oc2cc(F)ccc12` registered a melting point of 96 to 98 °C.

Compound `COc1ccc(-c2cc(=O)c3ccc(F)cc3o2)cc1` displayed a melting point of 228 to 230 °C.

`COc1ccc(-c2cc(=O)c3cc(F)ccc3o2)cc1` gave a melting point of 160 to 162 °C.

With `O=c1cc(-c2ccccc2)oc2cccc(F)c12`, the melting point fell in the range of 144 to 146 °C.

`COc1ccc(-c2cc(=O)c3c(F)cccc3o2)cc1` displayed a melting point of 178 to 180 °C.

The compound `COc1ccc(-c2cc(=O)c3cc(F)c(F)cc3o2)cc1` came in with a melting point of 200 to 202 °C.

In the case of `COc1ccc(-c2cc(=O)c3c(F)cc(F)cc3o2)cc1`, the melting point was 256 to 258 °C.

The compound `O=C(O)c1cccc(-c2cc(=O)c3cc(O)c(O)cc3o2)c1` [Compound 16b, 3–(6,7-Dihydroxy-4-oxo-4H-chromen-2-yl)benzoic acid] returned a melting point of 416 to 418 °C.

`O=C(O)c1ccc(-c2cc(=O)c3c(O)cc(O)cc3o2)cc1` [Compound 16c, 4–(5,7-Dihydroxy-4-oxo-4H-chromen-2-yl)benzoic acid] returned a melting point of 337 to 339 °C.

Source of the values: PMC10075506, “Synthesis and biological evaluation of flavonoid-based IP6K2 inhibitors” (Journal of Enzyme Inhibition and Medicinal Chemistry, 2023).
